According to patent US9732088B2, “C2-carbocyclic iminothiazine dioxides as BACE inhibitors, compositions, and their use” (Merck Sharp & Dohme Corp., priority 2014, dated 2017):

Experiments:
[1] = target: purified human Cathepsin-D (Homo sapiens (Human), UniProt P07339); assay: Cathepsin-D Assay (time-resolved FRET); format: biochemical; details: Assay 4; Ki calculated from IC50 by Cheng-Prusoff;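 also: Europium-labelled peptide substrate with QSY7 quencher, cleavage read as 620 nm fluorescence after 30 min preincubation then 30 min reaction at 30 °C, pH 5.0, inhibition lowers signal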
[2] = target: purified human autoBACE-2 (Homo sapiens (Human), UniProt Q9Y5Z0); assay: BACE-2 Assay (BACE-HTRF assay); format: biochemical; details: Assay 2; Ki calculated from IC50 by Cheng-Prusoff; read-out: BACE2 Ki
Method: The compounds of the invention were determined to be potent inhibitors of BACE-2 using the following assay. Inhibitor IC50s at purified human autoBACE-2 are determined in a time-resolved endpoint proteolysis assay that measures hydrolysis of the QSY7-[…]-Eu-amide FRET peptide substrate (BACE-HTRF assay). BACE-mediated hydrolysis of this peptide results in an increase in relative fluorescence (RFU) at 620 nm after excitation with 320 nm light Inhibitor compounds, prepared at 3× the desired final concentration in 1×BACE assay buffer (20 mM sodium acetate pH 5.0, 10% glycerol, 0.1% Brij-35) supplemented with 7.5% DMSO are pre-incubated with an equal volume of autoBACE-2 enzyme diluted in 1×BACE assay buffer (final enzyme concentration 1 nM) in black 384-well NUNC plates for 30 minutes at 30° C. […] DMSO is present at […] final concentration in the assay. Following laser excitation of sample wells at 320 nm, the fluorescence signal at 620 nm is collected for 400 ms following a 50 μs delay on a RUBYstar HTRF plate reader (BMG Labtechnologies). Raw RFU data is normalized to maximum (1.0 nM BACE/DMSO) and minimum (no enzyme/DMSO) RFU values. IC50 values are determined by nonlinear regression analysis (sigmoidal dose response, variable slope) of percent inhibition data with minimum and maximum values set to 0 and 100 percent respectively. Similar IC50s are obtained when using raw RFU data. The Ki values are calculated from the IC50 using the Cheng-Prusoff equation.

[3] = target: BACE-1 (Homo sapiens (Human), UniProt P56817); assay: BACE-1 Cellular Assay (Aβ in HEK293-APPswe/lon cells); format: cell-based; details: 4 hours
Method: Assay 3: BACE-1 Cellular Assay
Certain compounds of the invention, identified in the tables herein, were determined to be potent inhibitors of BACE-1 in the following cellular assay. HEK293 cells are obtained from the American Type Culture Collection (ATCC) and stably transfected with the human amyloid precursor protein cDNA containing the FAD Swedish (enhances β-secretase processing) and London (enhances Aβ42 cleavage) mutations. A HEK293 stable clone with Aβ expression (HEK293-APP^swe/lon) is identified and maintained at 37° C., 5% CO2 in the ATCC-recommended growth media supplemented with hygromycin. […] Aβ40 or Aβ42 are measured in 15 μl of media using a mesoscale based ELISA assay. Full length Aβ40 and Aβ42 peptides are captured with the N-terminal specific biotinylated-WO2 monoclonal antibody and detected using either the ruthenylated Aβ40 C-terminal specific monoclonal antibody, G2-10 or the ruthenylated Aβ42 C-terminal specific monoclonal antibody G2-11 respectively. Raw electrochemiluminescnce values are measured using a Mesoscale Sector Imager plate reader and are plotted as a function of compound concentration. IC50 values are interpolated from the data using nonlinear regression analysis (Sigmoidal dose response fit with variable slope) of the data using GraphPad Prism software.

[4] = target: soluble human BACE-1 catalytic domain (Homo sapiens (Human), UniProt P56817); assay: BACE-1 Ki Assay (BACE-1 HTRF FRET Assay); format: biochemical; details: Assay 1; Ki calculated from IC50 by Cheng-Prusoff
Method: Assay 1: BACE-1 Ki Assay (BACE-1 HTRF FRET Assay)
The compounds of the invention were determined to be potent inhibitors of BACE-1 using the following assay.
The following reagents were used in this assay. Na^+-Acetate pH 5.0; 1% Brij-35; Glycerol; Dimethyl Sulfoxide (DMSO); Recombinant human soluble BACE-1 catalytic domain (>95% pure); APP Swedish mutant peptide substrate (QSY7-APP^swe-Eu): QSY7-[…]-Europium-amide.
A homogeneous time-resolved FRET assay can be used to determine IC50 values for inhibitors of the soluble human BACE-1 catalytic domain. This assay monitors the increase of 620 nm fluorescence that resulted from BACE-1 cleavage of an APPswedish APP^swe mutant peptide FRET substrate (QSY7-[…]-Europium-amide). This substrate contains an N-terminal QSY7 moiety that serves as a quencher of the C-terminal Europium fluorophore (620 nm Em). In the absence of enzyme activity, 620 nm fluorescence is low in the assay and increased linearly over 3 hours in the presence of uninhibited BACE-1 enzyme. Inhibition of BACE-1 cleavage of the QSY7-APP^swe-Eu substrate by inhibitors is manifested as a suppression of 620 nm fluorescence.
Varying concentrations of inhibitors at 3× the final desired concentration in a volume of […] are preincubated with purified human BACE-1 catalytic domain (3 nM in 10 μl) for 30 minutes at 30° C. in reaction buffer containing 20 mM Na-Acetate pH 5.0, 10% glycerol, 0.1% Brij-35 and 7.5% DSMO. Reactions are initiated by addition of 10 μl of 600 nM QSY7-APP^swe-Eu substrate (200 nM final) to give a final reaction volume of 30 μl in a 384 well Nunc HTRF plate. The reactions are incubated at 30° C. for 1.5 hours. The 620 nm fluorescence is then read on a Rubystar HTRF plate reader (BMG Labtechnologies) using a […] delay followed by a 400 millisecond acquisition time window. Inhibitor IC50 values are derived from non-linear regression analysis of concentration response curves. Ki values are then calculated from IC50 values using the Cheng-Prusoff equation using a previously determined […] of 8 μM for the QSY7-APP^swe-Eu substrate at BACE-1. The example compounds of the invention were measured in this assay.

BACE-1, sequence (P56817 46-501): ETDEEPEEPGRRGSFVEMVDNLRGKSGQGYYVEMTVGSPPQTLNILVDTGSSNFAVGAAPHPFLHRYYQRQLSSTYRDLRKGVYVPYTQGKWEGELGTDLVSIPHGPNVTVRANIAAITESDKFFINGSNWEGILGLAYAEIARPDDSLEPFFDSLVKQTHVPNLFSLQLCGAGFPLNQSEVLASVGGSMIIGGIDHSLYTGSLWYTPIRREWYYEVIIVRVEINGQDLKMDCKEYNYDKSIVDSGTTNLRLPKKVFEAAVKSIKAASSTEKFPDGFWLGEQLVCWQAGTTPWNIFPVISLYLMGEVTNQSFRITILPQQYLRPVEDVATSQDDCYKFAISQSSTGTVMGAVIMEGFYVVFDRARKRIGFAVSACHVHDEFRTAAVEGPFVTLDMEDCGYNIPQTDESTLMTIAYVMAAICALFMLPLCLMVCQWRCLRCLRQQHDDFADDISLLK
soluble human BACE-1 catalytic domain, sequence (P56817 75-416): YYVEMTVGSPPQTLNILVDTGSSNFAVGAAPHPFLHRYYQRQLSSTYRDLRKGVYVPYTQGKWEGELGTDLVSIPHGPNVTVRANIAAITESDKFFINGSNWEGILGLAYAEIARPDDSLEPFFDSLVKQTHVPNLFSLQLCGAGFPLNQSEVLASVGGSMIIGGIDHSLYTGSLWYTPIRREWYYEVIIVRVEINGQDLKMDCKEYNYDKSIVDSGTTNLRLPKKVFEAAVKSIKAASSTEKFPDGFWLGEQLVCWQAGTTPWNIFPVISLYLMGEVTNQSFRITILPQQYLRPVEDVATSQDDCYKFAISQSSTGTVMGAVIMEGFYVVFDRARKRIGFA
purified human Cathepsin-D, sequence (P07339 65-412): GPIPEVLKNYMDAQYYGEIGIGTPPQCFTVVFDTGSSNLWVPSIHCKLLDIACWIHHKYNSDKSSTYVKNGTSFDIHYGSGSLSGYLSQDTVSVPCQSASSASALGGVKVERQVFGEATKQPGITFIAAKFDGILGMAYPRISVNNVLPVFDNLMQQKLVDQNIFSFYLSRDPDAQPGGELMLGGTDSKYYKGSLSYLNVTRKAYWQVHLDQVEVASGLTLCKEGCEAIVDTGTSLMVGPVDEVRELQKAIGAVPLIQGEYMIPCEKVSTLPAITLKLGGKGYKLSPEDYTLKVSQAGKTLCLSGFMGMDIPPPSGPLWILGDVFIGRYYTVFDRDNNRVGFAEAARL
purified human autoBACE-2, sequence (Q9Y5Z0 63-466): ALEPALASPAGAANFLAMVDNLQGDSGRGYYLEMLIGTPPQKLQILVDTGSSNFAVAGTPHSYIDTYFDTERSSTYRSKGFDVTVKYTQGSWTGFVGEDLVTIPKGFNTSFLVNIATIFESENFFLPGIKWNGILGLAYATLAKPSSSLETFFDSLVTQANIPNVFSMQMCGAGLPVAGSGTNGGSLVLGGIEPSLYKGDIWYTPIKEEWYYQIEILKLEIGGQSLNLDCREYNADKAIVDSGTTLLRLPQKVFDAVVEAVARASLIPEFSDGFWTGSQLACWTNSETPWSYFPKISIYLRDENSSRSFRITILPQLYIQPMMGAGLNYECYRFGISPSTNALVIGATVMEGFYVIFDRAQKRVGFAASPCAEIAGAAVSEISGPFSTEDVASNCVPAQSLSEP

Row | SMILES | Ki [1] | Ki [2] | IC50 [3] | Ki [4]
1 | CC#CCOc1cnc2c(Nc3cc([C@]4(C)CS(=O)(=O)[C@@](C)(C5CC5)C(N)=N4)c(F)cn3)nccc2c1 [Example 10, 3-(but-2-yn-1-yloxy)-N-{4-[(3R,6S)-6-cyclopropyl-5-imino-3,6-dimethyl-1,1-dioxidothiomorpholin-3-yl]-5-fluoropyridin-2-yl}-1,7-naphthyridin-8-amine] | > 9400 nM | 0.64 nM | 0.25 nM | 0.79 nM
2 | CC#CCOc1cnc2c(Nc3cnc(F)c([C@]4(C)CS(=O)(=O)[C@@](CF)(C5CC5)C(N)=N4)c3)nccc2c1 [Example 11, 3-(but-2-yn-1-yloxy)-N-{5-[(3R,6S)-6-cyclopropyl-6-(fluoromethyl)-5-imino-3-methyl-1,1-dioxidothiomorpholin-3-yl]-6-fluoropyridin-3-yl}-1,7-naphthyridin-8-amine] | 857 nM | 7.5 nM | 4.1 nM | 0.91 nM
3 | COc1cnc2c(Nc3cnc(F)c([C@]4(C)CS(=O)(=O)[C@@](CF)(C5CC5)C(N)=N4)c3)nccc2c1 [Example 12, N-{5-[(3R,6S)-6-cyclopropyl-6-(fluoromethyl)-5-imino-3-methyl-1,1-dioxidothiomorpholin-3-yl]-6-fluoropyridin-3-yl}-3-methoxy-1,7-naphthyridin-8-amine] | 629 nM | 3.3 nM | 99 nM | 6.1 nM
4 | CC#CCOc1cnc2c(Nc3cnc(F)c([C@]4(C)CS(=O)(=O)[C@@](CF)(C5CC5)C(N)=N4)c3)nccc2n1 [Example 13, 2-(but-2-yn-1-yloxy)-N-{5-[(3R,6S)-6-cyclopropyl-6-(fluoromethyl)-5-imino-3-methyl-1,1-dioxidothiomorpholin-3-yl]-6-fluoropyridin-3-yl}pyrido[3,4-b]pyrazin-5-amine] | 3380 nM | 1.1 nM | 6.6 nM | 0.65 nM
5 | C[C@@]1(c2cc(Nc3ncnc4cc(Br)cnc34)ccc2F)CS(=O)(=O)[C@@](C)(C2CC2)C(N)=N1 [Example 15, 7-bromo-N-{3-[(3R,6S)-6-cyclopropyl-5-imino-3,6-dimethyl-1,1-dioxidothiomorpholin-3-yl]-4-fluorophenyl}pyrido[3,2-d]pyrimidin-4-amine] | 321 nM | 0.73 nM | 3.4 nM | 1.8 nM
6 | C[C@@]1(c2cc(Nc3nccc4cc(Br)cnc34)ccc2F)CS(=O)(=O)[C@@](C)(C2CC2)C(N)=N1 [Example 17, 3-bromo-N-{3-[(3R,6S)-6-cyclopropyl-5-imino-3,6-dimethyl-1,1-dioxidothiomorpholin-3-yl]-4-fluorophenyl}-1,7-naphthyridin-8-amine] | 146 nM | 0.41 nM | 16 nM | 1.4 nM
7 | COc1cnc2c(Nc3cc([C@]4(C)CS(=O)(=O)[C@@](C)(C5CC5)C(N)=N4)c(F)cn3)ncnc2c1 [Example 19, N-{4-[(3R,6S)-6-cyclopropyl-5-imino-3,6-dimethyl-1,1-dioxidothiomorpholin-3-yl]-5-fluoropyridin-2-yl}-7-methoxypyrido[3,2-d]pyrimidin-4-amine] | 9300 nM | 21 nM | 192 nM | 67 nM
8 | COc1cnc2c(Nc3ccc(F)c([C@]4(C)CS(=O)(=O)[C@@](C)(C5CC5)C(N)=N4)c3)ncnc2c1 [Example 20, (2S,5R)-2-cyclopropyl-5-(2-fluoro-5-((7-methoxypyrido[3,2-d]pyrimidin-4-yl)amino)phenyl)-3-imino-2,5-dimethylthiomorpholine 1,1-dioxide] | 2160 nM | 2.4 nM | 5.3 nM | 3.7 nM
9 | C[C@@]1(c2cc(Nc3nccc4cc(O)cnc34)ncc2F)CS(=O)(=O)[C@@](C)(C2CC2)C(N)=N1 [Example 25, (3R,6S)-5-amino-6-cyclopropyl-3-(5-fluoro-2-((3-hydroxy-1,7-naphthyridin-8-yl)amino)pyridin-4-yl)-3,6-dimethyl-3,6-dihydro-2H-1,4-thiazine 1,1-dioxide] | > 9400 nM | 0.59 nM | 4.9 nM | 0.89 nM
10 | C[C@@]1(c2cc(Nc3nccc4cc(Cl)cnc34)ncc2F)CS(=O)(=O)[C@@](C)(C2CC2)C(N)=N1 [Example 27, (3R,6S)-5-amino-3-(2-((3-chloro-1,7-naphthyridin-8-yl)amino)-5-fluoropyridin-4-yl)-6-cyclopropyl-3,6-dimethyl-3,6-dihydro-2H-1,4-thiazine 1,1-dioxide] | > 9400 nM | 2.9 nM | 180 nM | 10 nM
11 | COc1cnc2c(Nc3cnc(F)c([C@]4(C)CS(=O)(=O)[C@@](C)(C5CC5)C(N)=N4)c3)nccc2c1 [Example 32, (3R,6S)-5-amino-6-cyclopropyl-3-(2-fluoro-5-((3-methoxy-1,7-naphthyridin-8-yl)amino)pyridin-3-yl)-3,6-dimethyl-3,6-dihydro-2H-1,4-thiazine 1,1-dioxide] | 650 nM | 2.6 nM | 24 nM | 6.9 nM
12 | C[C@@]1(c2cc(Nc3ccnc4cc(Cl)cnc34)ncc2F)CS(=O)(=O)[C@@](C)(C2CC2)C(N)=N1 [Example 33, (3R,6S)-5-amino-3-(2-((7-chloro-1,5-naphthyridin-4-yl)amino)-5-fluoropyridin-4-yl)-6-cyclopropyl-3,6-dimethyl-3,6-dihydro-2H-1,4-thiazine 1,1-dioxide] | 820 nM | 0.82 nM | 27 nM | 6.2 nM
13 | C[C@@]1(c2cc(Nc3ncnc4cc(Br)cnc34)ncc2F)CS(=O)(=O)[C@@](C)(C2CC2)C(N)=N1 [Example 38, (3R,6S)-5-amino-3-(2-((7-bromopyrido[3,2-d]pyrimidin-4-yl)amino)-5-fluoropyridin-4-yl)-6-cyclopropyl-3,6-dimethyl-3,6-dihydro-2H-1,4-thiazine 1,1-dioxide] | 3200 nM | 3.8 nM | 110 nM | 8.2 nM
